The source of these data is patent US20060121488A1, “Glutamate transport modulatory compounds and methods” (priority 2003, published 2006).

Molecules are shown by their SMILES.

The subject of one assay is EAAT2. As to the kind of experiment: Spinal cord organotypic culture screen for EAAT2 protein expression (slot blot). It counts as cell-based, rat.
Assay [1] concerns large ventral horn motor neurons in organotypic spinal cord cultures. Briefly: In vitro model of chronic motor neurodegeneration (THA, organotypic spinal cord cultures). It counts as cell-based, rat. Particulars: THA 100 μM, ceftriaxone 0 to 100 μM, 4 weeks.
Description: In vitro model of chronic motor neurodegeneration (FIG. 7B). A model of chronic neurodegeneration was used, based on the blockade of glutamate transport in spinal cord organotypic cultures, with the non specific inhibitor threo-hytdroyxaspartate (THA) or TBOA. Chronic incubation of cultures with THA (or TBOA) leads to chronic increase in extra cellular glutamate and subsequent slow death of motor neurons (over 4 weeks).
To determine if drug induced GLT1 promoter activation, and the subsequent over expression of GLT1 protein could be neuroprotective, we used the organotypic spinal cord paradigm. Organotypic spinal cord cultures were prepared from lumbar spinal cords of 8-day-old rat pups, as described previously. […] No drugs were added for the first 7 days following culture preparation. THA was then added to experimental cultures at a concentration of 100 μM, which produces death of motor neurons within 3 to 4 weeks. […] After 4 weeks, cultures were fixed, and immuostained for neurofilament (SMI-32, Sternberger) to quantify large ventral horn motor neurons (a well established method to follow motor neuron survival in this system).
Assay [2] deals with cultures prepared from GLT-1 null mice. As to the kind of experiment: Chronic motor neurodegeneration model in cultures prepared from GLT-1 null mice. The settings on record: not shown. It counts as cell-based.
The next assay deals with G93A SOD1 mice. Briefly: In vivo neuroprotection in the G93A SOD1 mouse. An excerpt:
Numerous studies have documented a contributory role for excess glutamate in this mouse model- and role for modulating glutamate receptors or transporters in neuroprotective strategies. Guo H., et al. Hum Mol Genet. 2003; 12:2519-2532. Modest over expression—by a transgenic approach—can alter disease onset and/or survival.

Assay [3] has as its system primary cortical mixed neuronal-glial cell cultures. The settings on record: 1 μM added 48 hours prior to 1 hour OGD; 50% without drug.
Description: Method. Primary cortical mixed neuronal-glial cell cultures are prepared from gestation day 14-16 CD1 mice. The preparation of these cultures from mouse fetal cortex is well-described. Experiments are performed at days in vitro 13-15. In the experimental condition, cultures are subjected to oxygen glucose deprivation (OGD), an in-vitro model of ischemia. Cortical cells are either subjected to control treatment (media, modified Earle's balanced salt solution including glucose and bubbled with 5% CO2 95% O2, is changed alongside treatment groups, but no OGD is performed), or 5 minutes (sublethal) of OGD (using modified Earle's balanced salt solution which is devoid of glucose and bubbled with 10% H2, 85% N2, and 5% to deoxygenate). Anaerobic conditions are achieved using an anaerobic chamber at 37° C. OGD is terminated by exchange of media back to oxygenated growing medium. Twenty-four hours following the above, cortical cells are subjected either to no treatment, or one hour of OGD. Neuronal survival is determined by computer-assisted cell counting after staining with the fluorescent vital dyes propidium iodide (as an indicator of neuronal death) and Hoechst 33342 (as an indicator of total number of neurons) and is presented as percent of cell death. Glial nuclei fluoresce at a lower intensity and are gated out. […] Following 1 hour OGD, cells are returned to growing medium without drugs.
The mark [4] stands for this setting: 200 mg/kg ip from approximately 12 weeks of age.

The EC50 is the concentration at which the effect is half-maximal. A lower EC50 goes with higher potency in that assay.

Description for EAAT2: Screening Assay for EAAT2 Protein overexpression. […] Organotypic Spinal Cord. […] Briefly, 300 um sections of rat lumbar spinal cord, from postnatal day 8-10 rat pups, are placed on Millipore Millicell CM semipermeable membranes. Each well contains 5 slices (FIG. 2A). […] Each drug (10-100 μM) was added for 3 days, along with cell culture medium/serum. Cultures were harvested and 5-50 μg of tissue was applied to slot blot apparatus for detection of EAAT2 by standard Western blotting/chemiluminescence methods described in the past. […] All antipeptide antibodies were affinity purified and highly specific for transporter subtypes. […] For each antibody slot blot, the homogenates used are expected to be within the linear range for antibody detection, based on prior standard curves. Screening Library-Assay Design. […] The library is composed of 1040 compounds in 96 well plates, that also included positive control for transporter synthesis (dibutyryl cyclic AMP [dbcAMP], GDNF). […] Each compound was studied at a final concentration of 10-100 μM. All assays were performed in duplicate. Data Analysis. All blots were analyzed by laser densitometry (BioRad Image Quant) and the duplicate points were averaged. Each blot included a positive control standard (e.g. dbcAMP) and a negative control standard (e.g. serum, DMSO). […]

As to `CO/N=C(\C(=O)N[C@@H]1C(=O)N2C(C(=O)O)=C(CSc3nc(=O)c(=O)[nH]n3C)CS[C@H]12)c1csc(N)n1` [ceftriaxone], in the assay with EAAT2 (at the concentration used for neuroprotection (Preliminary Data Phases 1 and 2)), the “increase of GLT1 protein and function” value is listed as “at least 3 fold”. In the assay with EAAT2 (follow-up dose response analysis, spinal cord organotypic cultures), this compound registered an EC50 of 3.5 µM. Further, in assay [1], the motor neuron loss entry is listed as “prevented motor neurons loss in a dose dependent manner”. The “neuroprotection in GLT-1 null cultures” value in assay [2] is on record as “neuroprotection cannot be seen”. Besides, in the assay on G93A SOD1 mice (setting [4]), the “duration of strength effect” value amounted to 4 weeks and the “time after treatment at which strength effect was observed” value was not above 7 days. For the same compound, the “increase in over all survival” value with G93A SOD1 mice (200 mg/kg ip from approximately 12 weeks of age (disease onset)) lay within 7 to 10 days. Further, the “loss of muscle strength (grip strength)” value with G93A SOD1 mice (200 mg/kg ip from approximately 12 weeks of age, preservation lost by 18 weeks of age) is recorded as “significantly delayed loss of muscle strength”. The “percentage of neuronal cell death after 1 hour OGD” value in assay [3] is 20%.
